From patent US8993330B2, “Composition for a mitotic remodeling of chromosomes” (Centre National de la Recherche Scientifique, priority 2005, dated 2015)

How the values were obtained:
[1] = test system: sperm nuclei; test: DNA replication of sperm nuclei in Xenopus S-phase egg extract (32P-dCTP incorporation, TCA precipitation); format: biochemical; details: for replication rate of sperm chromatin: 300 μM TSA and 300 μM CTPB
Description: (§1) 5 μl samples were taken at different times and DNA replication was monitored by TCA precipitation of ^32PαdCTP incorporated into DNA.
Sperm chromatin was incubated in S-phase extract in the presence of 50 μg/ml ICRF193 at the beginning of the reaction or after 45 min (during the elongation phase). DNA replication was monitored by TCA precipitation of the replicated DNA.
(§2) Demembranated sperm nuclei were prepared and used as described in (Menut et al., 1999), and erythrocyte nuclei were purified from Xenopus blood as described. Nuclei were incubated in S-phase (1,000 nuclei/μl), or M-phase (CSF) extracts that were activated with 1 mM CaCl2. DNA synthesis was measured by ^32P-dCTP incorporation, as previously described (Menut et al., 1999).

[2] = test system: erythrocyte nuclei; test: DNA replication of erythrocyte nuclei in Xenopus egg extracts (32P-dCTP incorporation, TCA precipitation); format: biochemical; details: for replication rate of erythrocyte nuclei: permeabilized erythrocyte nuclei in S-phase extract, 300 μM TSA, 600 μM CTPB or 300 μM AA
Description: FIG. 1B: Permeabilized erythrocyte nuclei were incubated in S-phase or M-phase extract for 45 minutes before CaCl2 activation to trigger S phase. 5 μl samples were taken at different times. DNA replication was monitored by TCA precipitation of ^32PαdCTP incorporated into DNA and expressed as the percentage replicated DNA compared to the total input DNA. Sperm nuclei incubated in S-phase extract were used as a control.
as §1
FIG. 5A: Erythrocyte chromatin was incubated either in M-phase extract and immediately driven into S phase by Ca^++, or in M-phase extract for 45 min before induction into S phase by Ca^++ in the absence or presence of ICRF. Control sperm chromatin in M-phase extracts induced to enter S phase by calcium is shown. The amount of nuclei was 1000 nuclei/μl egg extract for sperm nuclei, and 500 nuclei/μl egg extract for erythrocyte nuclei to keep the chromatin concentration constant.
as §2

[3] = test system: erythrocyte or sperm nuclei; test: Chromosome condensation of nuclei in mitotic egg extract (Hoechst staining); format: biochemical, Xenopus; details: erythrocyte or sperm nuclei in M-phase extract; 50 μg/ml
Description: FIG. 5B: Demembranated erythrocyte nuclei or sperm nuclei were incubated in a mitotic egg extract in the presence or absence of 50 μg/ml of the topoisomerase II inhibitor ICRF193. DNA was stained with Hoechst dye for chromosome formation analysis.

[4] = test system: ORC2; test: ORC2 recruitment to chromatin (chromatin purification, anti ORC2 immunoblot); format: biochemical, Xenopus
Description: FIG. 5C: Chromatin was purified and proteins analyzed by SDS gel electrophoresis as described in Material and Methods. Erythrocyte nuclei (500 nuclei/μl egg extract) or sperm nuclei (1000 nuclei/μl egg extract) were incubated in a mitotic egg extract, induced to enter S phase with calcium, in the presence (+) or absence (−) of ICRF 193. Chromatin was purified 30 min after calcium activation and analyzed by immunoblot with a Xenopus anti ORC2 antibody.
50 μl samples were diluted with 5 volumes of extract buffer (XB: 100 mM KCl, 0.1 mM CaCl2, 1 mM MgCl2, 10 mM KOH-Hepes pH 7.7, 50 mM sucrose) and pelleted by centrifugation at 7500 g for 12 min through a 0.7 M sucrose cushion. Nuclear pellets were resuspended in XB, 0.3% Triton X-100 and incubated for 5 min on ice. After a further 5,000 g centrifugation for 5 min, chromatin pellets were recovered and adjusted in Laemmli Buffer.

[5] = test system: chromatin loop domains; test: DNA loop size by maximum fluorescent halo technique (MFHT); format: biochemical, Xenopus
Description: FIG. 4D: Nuclei were recovered on coverslips and submitted to the maximum fluorescent halo technique (MFHT) for DNA loop size measurements (Material and Methods).
FIG. 7C: Sperm nuclei collected at different times during replication or following M-phase were recovered on coverslips and submitted to MFHT for DNA loop size measurements. Entry into mitosis was induced by incubating post-replicate embryo nuclei in M-phase extract in the presence or absence of ICRF.
Maximum Fluorescent Halo Radius (MFHR) were determined by treating non-fixed nuclei on coverslips. They were first dipped for 1 min in ice cold NP40 buffer (0.5% NP40, 10 mM MgCl2, 0.5 mM CaCl2, 50 mM Hepes pH 7.8) and then sequentially dipped for 30 s in a solution containing 0.2 mM MgCl2, 10 mM Tris (pH 7.4) with 0.5 M, 1 M, 1.5 M, 2 M NaCl. They were then incubated in 100 μg/ml ethidium bromide, 2 M NaCl and exposed for 1 min to short wave UV light before observation by fluorescence (Buongiorno-Nardelli et al., 1982). Halo and matrix diameters were estimated using a micrometrics slide. DNA loop size was calculated taking into account that the loop size is 2 fold the MFHR. The length of linear DNA was calculated using the correspondence of 1 μm to 2.3 kbp.

[6] = inhibitor present during mitotic remodeling in M-phase extract, chromatin purified 30 min after calcium activation
[7] = sperm nuclei in S-phase extract

CCCCCCCCCCCCCCCc1cccc(O)c1C(=O)O [AA, anacardic acid]
replication of sperm nuclei ([1]; sperm nuclei in S-phase extract, 300 μM AA): strongly inhibited
sensitivity of replication of erythrocyte nuclei remodeled in mitosis ([2]; 45 min in M-phase extract, then S-phase extract containing 300 μM AA): as sensitive as sperm nuclei
replication rate of erythrocyte nuclei [2]: did not further inhibit

ICRF 193
DNA replication of sperm chromatin ([1]; S-phase extract, 50 μg/ml at the beginning of the reaction or after 45 min): does not interfere with DNA replication
rate of replication of erythrocyte nuclei ([2]; 45 min in M-Phase extract containing ICRF 193 before S phase induction): very low rate of replication
chromosome condensation [3]: prevented chromosome condensation
ORC recruitment ([4]; inhibition of loop size remodeling, post-replicative embryonic nuclei and erythrocyte nuclei): decreases
recruitment of ORC2 onto erythrocyte chromatin for the subsequent S-phase [4, 6]: dramatically reduced
recruitment of ORC2 onto sperm chromatin for the subsequent S-phase [4, 6]: not
mitotic remodeling (loop size reduction) of post-replicative nuclei ([5]; post-replicative embryonic nuclei in M-phase extract): blocked
S-phase dependent increase in loop size ([5]; sperm nuclei during replication in S phase, data not shown): prevented

CCCCCCCCCCCCCCCc1cccc(OCC)c1C(=O)Nc1ccc(Cl)c(C(F)(F)F)c1 [CTPB]
reversal of AA inhibition of sperm nuclei replication ([1]; S-phase extract, prior incubation of 600 μM CTPB, 300 μM AA): reversed
replication rate of sperm chromatin [1, 7]: no significant effect
replication rate of erythrocyte nuclei [2]: failed to significantly affect

CC(/C=C/C(=O)NO)=C\[C@@H](C)C(=O)c1ccc(N(C)C)cc1 [TSA, trichostatin]
replication rate of sperm chromatin [1, 7]: no significant effect
replication rate of erythrocyte nuclei [2]: failed to significantly affect
